Test results reported in ChEMBL document CHEMBL3880422, “C-terminal modified oxamyl dipeptides as inhibitors of the ICE/ced-3 family of cysteine proteases” (2007).
Where a SMILES comes first, the peptide text is derived from it. The star is where a group is joined. Cbz = O=C(OCc1ccccc1)*; CH2F = FC*

Columns and labels:
Caspase-3 (Homo sapiens) = target: T1, Caspase-3 (Homo sapiens) (UniProt P42574); assay: Inhibition of recombinant CPP32 (unknown origin) assessed as ratio of irreversible rate constant K3 to dissociation constant of the reversible binding step Ki pre-incubated for 60 mins with Acetyl-Tyr-Val-Ala-Asp-amino-4-methylcoumarin substrate followed by enzyme addition by fluorescence based assay
T1 sequence (whole entry): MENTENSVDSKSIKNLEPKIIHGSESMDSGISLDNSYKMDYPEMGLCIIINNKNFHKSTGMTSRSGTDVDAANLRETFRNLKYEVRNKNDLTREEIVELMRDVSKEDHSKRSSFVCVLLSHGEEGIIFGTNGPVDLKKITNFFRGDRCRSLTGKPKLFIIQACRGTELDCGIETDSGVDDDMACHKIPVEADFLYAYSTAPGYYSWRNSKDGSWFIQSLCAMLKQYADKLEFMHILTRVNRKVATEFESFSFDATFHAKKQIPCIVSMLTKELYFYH

Caspase-1 (Mus musculus) = target: T2, Caspase-1 (Mus musculus) (UniProt P29452); assay: Inhibition of mouse recombinant ICE assessed as ratio of irreversible rate constant K3 to dissociation constant of the reversible binding step Ki pre-incubated for 60 mins with Acetyl-Tyr-Val-Ala-Asp-amino-4-methylcoumarin substrate followed by enzyme addition by fluorescence based assay
T2 sequence (whole entry): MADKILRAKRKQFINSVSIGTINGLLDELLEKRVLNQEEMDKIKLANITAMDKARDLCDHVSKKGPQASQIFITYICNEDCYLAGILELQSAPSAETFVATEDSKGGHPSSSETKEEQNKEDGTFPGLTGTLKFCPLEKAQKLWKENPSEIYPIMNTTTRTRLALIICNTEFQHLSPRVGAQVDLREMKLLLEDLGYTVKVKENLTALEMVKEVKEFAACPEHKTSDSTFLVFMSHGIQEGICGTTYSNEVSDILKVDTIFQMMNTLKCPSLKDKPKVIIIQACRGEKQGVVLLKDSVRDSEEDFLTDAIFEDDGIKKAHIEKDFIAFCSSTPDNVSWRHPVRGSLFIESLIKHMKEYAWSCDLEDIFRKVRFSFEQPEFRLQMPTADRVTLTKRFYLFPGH

Caspase-8 (Homo sapiens) = Caspase-8 (Homo sapiens) (UniProt Q14790); assay: Inhibition of recombinant MCH5 (unknown origin) assessed as ratio of irreversible rate constant K3 to dissociation constant of the reversible binding step Ki pre-incubated for 60 mins with Acetyl-Tyr-Val-Ala-Asp-amino-4-methylcoumarin substrate followed by enzyme addition by fluorescence based assay
Chain of Caspase-8 (Homo sapiens) (Q14790 217-374 limits assumed): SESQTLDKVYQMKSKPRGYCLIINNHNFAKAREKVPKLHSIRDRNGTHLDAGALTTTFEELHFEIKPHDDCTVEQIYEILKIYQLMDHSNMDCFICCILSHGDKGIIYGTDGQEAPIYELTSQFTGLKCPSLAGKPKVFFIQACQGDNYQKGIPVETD
Chain of Caspase-8 (Homo sapiens) (Q14790 385-479 limits assumed): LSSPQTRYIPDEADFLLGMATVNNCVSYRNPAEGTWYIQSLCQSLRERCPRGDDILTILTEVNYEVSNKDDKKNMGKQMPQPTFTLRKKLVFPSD

Caspase-6 (Homo sapiens) = target: T3, Caspase-6 (Homo sapiens) (UniProt P55212); assay: Inhibition of recombinant MCH2 (unknown origin) assessed as ratio of irreversible rate constant K3 to dissociation constant of the reversible binding step Ki pre-incubated for 60 mins with Acetyl-Tyr-Val-Ala-Asp-amino-4-methylcoumarin substrate followed by enzyme addition by fluorescence based assay
T3 sequence (whole entry): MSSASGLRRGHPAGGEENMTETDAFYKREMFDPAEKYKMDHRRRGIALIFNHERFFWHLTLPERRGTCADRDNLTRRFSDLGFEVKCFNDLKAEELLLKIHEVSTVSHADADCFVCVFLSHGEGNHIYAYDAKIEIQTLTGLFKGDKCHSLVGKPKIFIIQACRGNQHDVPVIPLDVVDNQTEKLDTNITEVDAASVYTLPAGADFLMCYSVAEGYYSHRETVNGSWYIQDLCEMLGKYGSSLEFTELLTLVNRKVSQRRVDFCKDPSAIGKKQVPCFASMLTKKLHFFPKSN

Row | SMILES | Ratio (Caspase-3 (Homo sapiens)) | Ratio (Caspase-1 (Mus musculus)) | Ratio (Caspase-8 (Homo sapiens)) | Ratio (Caspase-6 (Homo sapiens))
1 | CC(C)[C@H](NC(=O)C(=O)Nc1ccccn1)C(=O)N[C@@H](CC(=O)O)C(=O)COc1c(F)c(F)cc(F)c1F | 9850 M⁻¹ s⁻¹ | 36000 M⁻¹ s⁻¹ | 19500 M⁻¹ s⁻¹ | 11600 M⁻¹ s⁻¹
2 | C[C@H](NC(=O)C(=O)Nc1ccccc1C(C)(C)C)C(=O)N[C@@H](CC(=O)O)C(=O)COC(=O)c1c(Cl)cccc1Cl | 62900 to 142000 M⁻¹ s⁻¹ | 43300 to 537000 M⁻¹ s⁻¹ | 30200 to 39100 M⁻¹ s⁻¹ | 6960 to 191000 M⁻¹ s⁻¹
3 | CC(C)[C@H](NC(=O)C(=O)Nc1ccccc1)C(=O)N[C@@H](CC(=O)O)C(=O)COc1c(F)c(F)cc(F)c1F | 36000 M⁻¹ s⁻¹ | 1.49e+06 M⁻¹ s⁻¹ | 598000 M⁻¹ s⁻¹ | 25500 M⁻¹ s⁻¹
4 | C[C@H](NC(=O)C(=O)Nc1cccc2c1CCCC2)C(=O)N[C@@H](CC(=O)O)C(=O)COC(=O)c1c(Cl)cccc1Cl | 149000 to 260000 M⁻¹ s⁻¹ | 16900 to 1.76e+07 M⁻¹ s⁻¹ | 21200 to 1.92e+06 M⁻¹ s⁻¹ | 126000 to 264000 M⁻¹ s⁻¹
5 | C[C@H](NC(=O)C(=O)Nc1cccc2c1CCCC2)C(=O)N[C@@H](CC(=O)O)C(=O)COc1c(F)c(F)cc(F)c1F | 118000 M⁻¹ s⁻¹ | 22000 M⁻¹ s⁻¹ | 46200 M⁻¹ s⁻¹ | 64100 M⁻¹ s⁻¹
6 | CC(C)[C@H](NC(=O)C(=O)Nc1cccc2ccccc12)C(=O)N[C@@H](CC(=O)O)C(=O)COc1c(-c2ccccc2)oc2ccccc2c1=O | 43600 M⁻¹ s⁻¹ | 82100 M⁻¹ s⁻¹ | 0 M⁻¹ s⁻¹ | 0 M⁻¹ s⁻¹
7 | CC(C)[C@H](NC(=O)OCc1ccccc1)C(=O)N[C@@H](C)C(=O)N[C@@H](CC(=O)O)C(=O)CF (Cbz-Val-Ala-Asp-CH2F) | 12200 M⁻¹ s⁻¹ | 214000 M⁻¹ s⁻¹ | 83300 M⁻¹ s⁻¹ | 2950 M⁻¹ s⁻¹
8 | CC(C)[C@H](NC(=O)C(=O)Nc1ccccc1-c1ccccc1)C(=O)N[C@@H](CC(=O)O)C(=O)COc1c(F)c(F)cc(F)c1F | 25400 M⁻¹ s⁻¹ | 127000 M⁻¹ s⁻¹ | 65300 M⁻¹ s⁻¹ | 31700 M⁻¹ s⁻¹
9 | C[C@H](NC(=O)C(=O)NCc1ccccc1)C(=O)N[C@@H](CC(=O)O)C(=O)COC(=O)c1c(Cl)cccc1Cl | 600000 M⁻¹ s⁻¹ | 59100 M⁻¹ s⁻¹ | 203000 M⁻¹ s⁻¹ | 244000 M⁻¹ s⁻¹
10 | C[C@H](NC(=O)C(=O)NC1CCCCC1)C(=O)N[C@@H](CC(=O)O)C(=O)COP(=O)(c1ccccc1)c1ccccc1 | 137000 M⁻¹ s⁻¹ | 2.03e+06 M⁻¹ s⁻¹ | 1.79e+06 M⁻¹ s⁻¹ | 97500 M⁻¹ s⁻¹
11 | C[C@H](NC(=O)C(=O)Nc1ccccc1F)C(=O)N[C@@H](CC(=O)O)C(=O)COc1c(F)c(F)cc(F)c1F | 478000 M⁻¹ s⁻¹ | 339000 M⁻¹ s⁻¹ | 170000 M⁻¹ s⁻¹ | 212000 M⁻¹ s⁻¹
12 | CC(C)[C@H](NC(=O)C(=O)Nc1c(F)cccc1F)C(=O)N[C@@H](CC(=O)O)C(=O)COc1c(F)c(F)cc(F)c1F | 62900 M⁻¹ s⁻¹ | 2.68e+06 M⁻¹ s⁻¹ | 1.83e+06 M⁻¹ s⁻¹ | 1.08e+06 M⁻¹ s⁻¹
13 | CC(C)[C@H](NC(=O)C(=O)Nc1ccccc1C(F)(F)F)C(=O)N[C@@H](CC(=O)O)C(=O)COc1c(F)c(F)cc(F)c1F | 57400 M⁻¹ s⁻¹ | 1.04e+06 M⁻¹ s⁻¹ | 41000 M⁻¹ s⁻¹ | 261000 M⁻¹ s⁻¹
14 | C[C@H](NC(=O)C(=O)Nc1cc(C(F)(F)F)ccc1N1CCCC1)C(=O)N[C@@H](CC(=O)O)C(=O)COP(=O)(c1ccccc1)c1ccccc1 | 78600 M⁻¹ s⁻¹ | 1.5e+06 M⁻¹ s⁻¹ | 933000 M⁻¹ s⁻¹ | 202000 M⁻¹ s⁻¹
15 | C[C@H](NC(=O)C(=O)Nc1ccccc1Cl)C(=O)N[C@@H](CC(=O)O)C(=O)COC(=O)c1c(Cl)cccc1Cl | 323000 to 842000 M⁻¹ s⁻¹ | 278000 to 1.94e+06 M⁻¹ s⁻¹ | 396000 to 1.63e+06 M⁻¹ s⁻¹ | 281000 to 745000 M⁻¹ s⁻¹
16 | CC(C)[C@H](NC(=O)C(=O)Nc1ccccc1C(C)(C)C)C(=O)N[C@@H](CC(=O)O)C(=O)COc1c(F)c(F)cc(F)c1F | 27700 M⁻¹ s⁻¹ | 2.05e+06 M⁻¹ s⁻¹ | 1.16e+06 M⁻¹ s⁻¹ | 112000 M⁻¹ s⁻¹
17 | C[C@H](NC(=O)C(=O)NCc1cccc2ccccc12)C(=O)N[C@@H](CC(=O)O)C(=O)COc1c(F)c(F)cc(F)c1F | 158000 M⁻¹ s⁻¹ | 2.59e+06 M⁻¹ s⁻¹ | 1.26e+06 M⁻¹ s⁻¹ | 335000 M⁻¹ s⁻¹
18 | C[C@H](NC(=O)C(=O)Nc1ccc(F)cc1)C(=O)N[C@@H](CC(=O)O)C(=O)COP(=O)(c1ccccc1)c1ccccc1 | 268000 M⁻¹ s⁻¹ | 956000 M⁻¹ s⁻¹ | 2.3e+06 M⁻¹ s⁻¹ | 424000 M⁻¹ s⁻¹
19 | C[C@H](NC(=O)C(=O)NC12CC3CC(CC(C3)C1)C2)C(=O)N[C@@H](CC(=O)O)C(=O)COP(=O)(c1ccccc1)c1ccccc1 | 149000 to 243000 M⁻¹ s⁻¹ | 27600 to 242000 M⁻¹ s⁻¹ | 50400 to 643000 M⁻¹ s⁻¹ | 124000 to 445000 M⁻¹ s⁻¹
20 | C[C@H](NC(=O)C(=O)Nc1ccccc1I)C(=O)N[C@@H](CC(=O)O)C(=O)COP(=O)(c1ccccc1)c1ccccc1 | 78300 M⁻¹ s⁻¹ | 36300 M⁻¹ s⁻¹ | 46300 M⁻¹ s⁻¹ | 66200 M⁻¹ s⁻¹
21 | CCCOc1ccc(OCC(=O)[C@H](CC(=O)O)NC(=O)[C@@H](NC(=O)C(=O)Nc2cccc3ccccc23)C(C)C)cc1 | 167000 M⁻¹ s⁻¹ | 825000 M⁻¹ s⁻¹ | 286000 M⁻¹ s⁻¹ | 63000 M⁻¹ s⁻¹
22 | CC(C)[C@H](NC(=O)C(=O)Nc1ccncc1)C(=O)N[C@@H](CC(=O)O)C(=O)COc1c(F)c(F)cc(F)c1F | 511 M⁻¹ s⁻¹ | 912 M⁻¹ s⁻¹ | 1140 M⁻¹ s⁻¹ | 5580 M⁻¹ s⁻¹
23 | CC(C)[C@H](NC(=O)C(=O)NC(c1ccccc1)c1ccccc1)C(=O)N[C@@H](CC(=O)O)C(=O)COc1c(F)c(F)cc(F)c1F | 5380 M⁻¹ s⁻¹ | 201000 M⁻¹ s⁻¹ | 48600 M⁻¹ s⁻¹ | 1430 M⁻¹ s⁻¹
24 | CC(C)[C@H](NC(=O)C(=O)Nc1ccccc1I)C(=O)N[C@@H](CC(=O)O)C(=O)COc1c(F)c(F)cc(F)c1F | 42300 M⁻¹ s⁻¹ | 1.26e+06 M⁻¹ s⁻¹ | 1.03e+06 M⁻¹ s⁻¹ | 137000 M⁻¹ s⁻¹
25 | C[C@H](NC(=O)C(=O)Nc1cccc2c1CCCC2)C(=O)N[C@@H](CC(=O)O)C(=O)COP(=O)(c1ccccc1)c1ccccc1 | 139000 to 157000 M⁻¹ s⁻¹ | 315000 to 905000 M⁻¹ s⁻¹ | 71800 to 1.15e+06 M⁻¹ s⁻¹ | 120000 to 132000 M⁻¹ s⁻¹
26 | C[C@H](NC(=O)C(=O)NC12CC3CC(CC(C3)C1)C2)C(=O)N[C@@H](CC(=O)O)C(=O)COC(=O)c1c(Cl)cccc1Cl | 20500 to 165000 M⁻¹ s⁻¹ | 46000 to 126000 M⁻¹ s⁻¹ | 18700 to 92600 M⁻¹ s⁻¹ | 21100 to 143000 M⁻¹ s⁻¹
27 | CC(C)[C@H](NC(=O)C(=O)Nc1nc2ccccc2[nH]1)C(=O)N[C@@H](CC(=O)O)C(=O)COc1c(F)c(F)cc(F)c1F | 3130 M⁻¹ s⁻¹ | 27400 M⁻¹ s⁻¹ | 20800 M⁻¹ s⁻¹ | 1840 M⁻¹ s⁻¹
28 | CC(C)[C@H](NC(=O)C(=O)Nc1c(F)c(F)nc(F)c1F)C(=O)N[C@@H](CC(=O)O)C(=O)COc1c(F)c(F)cc(F)c1F | 153000 M⁻¹ s⁻¹ | 1.22e+06 M⁻¹ s⁻¹ | 389000 M⁻¹ s⁻¹ | 170000 M⁻¹ s⁻¹
29 | CC(C)[C@H](NC(=O)C(=O)NC1CCCc2ccccc21)C(=O)N[C@@H](CC(=O)O)C(=O)COc1c(F)c(F)cc(F)c1F (stereo partly specified) | 98600 M⁻¹ s⁻¹ | 2.32e+06 M⁻¹ s⁻¹ | 456000 M⁻¹ s⁻¹ | 160000 M⁻¹ s⁻¹
